Data published in patent US11292821B2, “Peptides and combination of peptides for use in immunotherapy against lung cancer, including NSCLC, SCLC and other cancers” (Immatics Biotechnologies GmbH, priority 2017, dated 2022).

Experiments:
CD8+ T cells = experiment: In vitro T-cell priming assay with aAPCs (in vitro immunogenicity for MHC class I presented peptides); format: cell-based, human; conditions: in vitro immunogenicity
HLA-A*02 = HLA-A*02 (Homo sapiens, UniProt P04439, D140Y/D185E/D98H/E176V/E277Q/G131W/G231S/I119V/I121R/I166T/I218V/N151K/N90K/P208A/P217A/Q86G/Q94H/R138H/R169H); experiment: MHC binding assay (UV-ligand exchange, β2m ELISA)
HLA-B*44 = experiment: MHC binding assay (UV-ligand exchange, β2m ELISA); parameters: species or system human; conditions: UV-ligand exchange, β2m ELISA

Peptide exchange (peptide exchange yield, MHC class I binding score) (HLA-A*02) | Peptide exchange (peptide exchange yield, MHC class I binding score) (HLA-B*44) | Substance | Wells positive [%] (CD8+ T cells; HLA A*02) | Wells positive [%] (CD8+ T cells; HLA B*44)
“++++” (>75% = ++++) | – | 84 (YVDINTFRL; listed as Homo sapiens) [compound 84] | “+” (<20% = +) | –
“++++” (>75% = ++++) | – | 85 (YIDEFQSLV; listed as Homo sapiens) [compound 85] | “++” (20%-49% = ++) | –
“++++” (>75% = ++++) | – | 86 (FVIDGFDEL; listed as Homo sapiens) [compound 86] | – | –
“++++” (>75% = ++++) | – | 87 (TLYPYQISQL; listed as Homo sapiens) [compound 87] | “++” (20%-49% = ++) | –
“++++” (>75% = ++++) | – | 88 (VQMVITEAQKV; listed as Homo sapiens) [compound 88] | “++” (20%-49% = ++) | –
“++++” (>75% = ++++) | – | 89 (ILSTTMVTV; listed as Homo sapiens) [compound 89] | “+++” (50%-69% = +++) | –
“+++” (>50 = +++) | – | 91 (FALPGLLHA; listed as Homo sapiens) [compound 91] | – | –
“+++” (>50 = +++) | – | 92 (NLRDLLSEV; listed as Homo sapiens) [compound 92] | – | –
“++++” (>75% = ++++) | – | 93 (TLQEKILQV; listed as Homo sapiens) [compound 93] | “+” (<20% = +) | –
“++++” (>75% = ++++) | – | 94 (VLPDIETLIGV; listed as Homo sapiens) [compound 94] | “+++” (50%-69% = +++) | –
“++++” (>75% = ++++) | – | 95 (ITIGVLARV; listed as Homo sapiens) [compound 95] | “++++” (>=70% = ++++) | –
“++++” (>75% = ++++) | – | 96 (HLVGGLHTV; listed as Homo sapiens) [compound 96] | “+++” (50%-69% = +++) | –
“++++” (>75% = ++++) | – | 98 (LQSSGLTLLL; listed as Homo sapiens) [compound 98] | – | –
“++++” (>75% = ++++) | – | 99 (FLKEKVPGI; listed as Homo sapiens) [compound 99] | – | –
“++++” (>75% = ++++) | – | 100 (RQYPTPFQL; listed as Homo sapiens) [compound 100] | – | –
“++++” (>75% = ++++) | – | 102 (SLLEQAIAL; listed as Homo sapiens) [compound 102] | – | –
“++++” (>75% = ++++) | – | 103 (FLYYPDPVL; listed as Homo sapiens) [compound 103] | – | –
“++++” (>75% = ++++) | – | 104 (GMLDIFWGV; listed as Homo sapiens) [compound 104] | – | –
“++++” (>75% = ++++) | – | 105 (SLLTHIPTA; listed as Homo sapiens) [compound 105] | – | –
“++++” (>75% = ++++) | – | 106 (FIIDTTYPAYV; listed as Homo sapiens) [compound 106] | – | –

Peptide exchange (peptide exchange yield, MHC class I binding score) (HLA-A*02) | Peptide exchange (peptide exchange yield, MHC class I binding score) (HLA-B*44) | Substance | Wells positive [%] (CD8+ T cells; HLA A*02) | Wells positive [%] (CD8+ T cells; HLA B*44)
“++++” (>75% = ++++) | – | 107 (LLQGAIESV; listed as Homo sapiens) [compound 107] | – | –
“++++” (>75% = ++++) | – | 109 (LLLGSIGLLGV; listed as Homo sapiens) [compound 109] | – | –
“++++” (>75% = ++++) | – | 110 (LLADFQALL; listed as Homo sapiens) [compound 110] | – | –
“+” (>10% = +) | – | 111 (ALCLLLHLL; listed as Homo sapiens) [compound 111] | – | –
“++++” (>75% = ++++) | – | 112 (SVSDGIHSV; listed as Homo sapiens) [compound 112] | – | –
“++++” (>75% = ++++) | – | 113 (AVLTGLVEV; listed as Homo sapiens) [compound 113] | – | –
“++++” (>75% = ++++) | – | 114 (ILDERQVLL; listed as Homo sapiens) [compound 114] | – | –
“++++” (>75% = ++++) | – | 115 (MLLETQDALYV; listed as Homo sapiens) [compound 115] | – | –
“++++” (>75% = ++++) | – | 116 (VLMEENSKL; listed as Homo sapiens) [compound 116] | – | –
“++++” (>75% = ++++) | – | 117 (FLDPNARPLV; listed as Homo sapiens) [compound 117] | – | –
“++++” (>75% = ++++) | – | 118 (ALSSVLHSI; listed as Homo sapiens) [compound 118] | – | –
“++++” (>75% = ++++) | – | 119 (RTADITVTV; listed as Homo sapiens) [compound 119] | – | –
“++++” (>75% = ++++) | – | 120 (ALLANLPAV; listed as Homo sapiens) [compound 120] | – | –
“++++” (>75% = ++++) | – | 121 (ALVDTLTGI; listed as Homo sapiens) [compound 121] | – | –
“++++” (>75% = ++++) | – | 122 (ALLEMFPEITV; listed as Homo sapiens) [compound 122] | – | –
“++” (>20% = ++) | – | 123 (LMAFFLAVV; listed as Homo sapiens) [compound 123] | – | –
“++++” (>75% = ++++) | – | 124 (SVASVLLYL; listed as Homo sapiens) [compound 124] | – | –
“++++” (>75% = ++++) | – | 126 (FLSTVTSV; listed as Homo sapiens) [compound 126] | – | –
– | “++++” (>75% = ++++) | 320 (MEVDPIGHVYIF; listed as Homo sapiens) [compound 320] | – | “+” (<20% = +)
– | “++” (>20% = ++) | 322 (KEVDPAGHSY; listed as Homo sapiens) [compound 322] | – | “++” (20%-49% = ++)

Peptide exchange (peptide exchange yield, MHC class I binding score) (HLA-A*02) | Peptide exchange (peptide exchange yield, MHC class I binding score) (HLA-B*44) | Substance | Wells positive [%] (CD8+ T cells; HLA A*02) | Wells positive [%] (CD8+ T cells; HLA B*44)
– | “+++” (>50 =+++) | 323 (SEFMQVIF; listed as Homo sapiens) [compound 323] | – | “+” (<20% = +)
– | “++” (>20% = ++) | 325 (QEQDVDLVQKY; listed as Homo sapiens) [compound 325] | – | “+” (<20% = +)
– | “+++” (>50 =+++) | 326 (QEMQHFLGL; listed as Homo sapiens) [compound 326] | – | “+” (<20% = +)
– | “++++” (>75% = ++++) | 328 (FEYDFLLQRI; listed as Homo sapiens) [compound 328] | – | “+” (<20% = +)
– | “+++” (>50 =+++) | 329 (NEHPSNNW; listed as Homo sapiens) [compound 329] | – | “+” (<20% = +)
– | “+++” (>50 =+++) | 330 (KEGDLGGKQW; listed as Homo sapiens) [compound 330] | – | “+” (<20% = +)
– | “+++” (>50 =+++) | 331 (EDAQGHIW; listed as Homo sapiens) [compound 331] | – | “++” (20%-49% = ++)
– | “+++” (>50 =+++) | 333 (AETLSTIQI; listed as Homo sapiens) [compound 333] | – | “+” (<20% = +)
– | “++” (>20% = ++) | 334 (AEDEPAAAHL; listed as Homo sapiens) [compound 334] | – | “+” (<20% = +)
– | “++++” (>75% = ++++) | 337 (TENRYCVQL; listed as Homo sapiens) [compound 337] | – | “++” (20%-49% = ++)
– | “+++” (>50 =+++) | 338 (SEGSEPALLHSW; listed as Homo sapiens) [compound 338] | – | “+” (<20% = +)
– | “+++” (>50 =+++) | 339 (SEPALLHSW; listed as Homo sapiens) [compound 339] | – | “++” (20%-49% = ++)
– | “+++” (>50 =+++) | 342 (HEFSSPSHL; listed as Homo sapiens) [compound 342] | – | “+” (<20% = +)
“++++” (>75% = ++++) | – | 388 (FSIPEGALVAV; listed as Homo sapiens) [compound 388] | – | –
“++++” (>75% = ++++) | – | 389 (TLMEQPLTTL; listed as Homo sapiens) [compound 389] | – | –
“++++” (>75% = ++++) | – | 390 (HIMPTVHTV; listed as Homo sapiens) [compound 390] | – | –
“++++” (>75% = ++++) | – | 391 (SLIDMRGIETV; listed as Homo sapiens) [compound 391] | – | –
– | “++” (>20% = ++) | 476 (AEEEIMKKI; listed as Homo sapiens) [compound 476] | – | “+” (<20% = +)
– | “+++” (>50 =+++) | 477 (QENSYQSRL; listed as Homo sapiens) [compound 477] | – | “+” (<20% = +)
